Data: patent publication US20120214743A1, “ITCH SUPPRESSANT” (University of Occupational and Environmental Health, Japan, priority 2009, published 2012)
Ends that are not written are not given here. * marks the point of attachment. SO3H = O=S(=O)(O)*

Assays:
[1] = tested on: ICR mice; test: SP-induced scratch behavior in ICR mice; type: in vivo, mouse
Method: Since it is considered that external administration of CCK affects keratinocytes, at first, CCK2R agonist was administered transdermally (applying the solution prepared using acetone-olive (3:1)) to itch-related behavior model (ICR mice administered intradermally with SP (100 nmol)).
The hair was clipped over the rostral part of the murine back one or two days prior to experiment. Before behavioral recording, each mouse (4 animals per observation) was put into an acrylic cage (18×23×11 cm) for at least 1 hr for acclamation. An intradermal injection of SP (100 nmol in normal saline per site) induces scratching of the skin around the injected site by the hind paws in mice. CCKs were topically applied in the two ways, percutaenous application and intradermal injection. For percutaneous application, the shaved back skin was stripped with Scotch tape (3M) 6 times the day before the experiment. The mice were painted on the clipped back with 20 μL CCK (0.5 nmol/site) in acetone/olive (3:1) 3-4 minutes before SP injection (100 nmol/site). […] Immediately after treatment, the animals were put back into the same cage and their behavior was videotaped using a digital video camera for 40 minutes. The frequency of scratch toward the injected site by hind paws was counted for the first 20 minutes with the video.

[2] = tested on: NHEKs; test: IL-8 production in NHEK (cytometric bead array); type: cell-based, human; conditions: CCK8S 10^−9, 10^−8 or 10^−7 M, Ca 0.15 mM or 0.6 mM, FIG. 5A
Method: IL^-8 concentration in the culture supernatants was quantified with Cytometric Bead Array (CBA) Flex Set System purchased from BD using FACSCanto (BD).
NHEKs were stimulated with various concentrations of CCK8S (CCK8S concentration of 10^−9, 10^−8, or 10^−7 M, Ca concentration of 0.15 mM or 0.6 mM).

[3] = tested on: FSMCs (mouse fetal skin derived mast cells); test: β-Hexosaminidase assay, compound 48/80-induced degranulation of FSMCs; type: cell-based; conditions: CCK8S at 10^−8 or 10^−7 M, 15 min at 37° C., FIG. 5B
Method: FSMCs were washed with Tyrode's buffer (Sigma), and resuspended at 2×10^4 cells per well into a 96 well plate. FSMCs were treated with compound 48/80 with or without CCK8S for 15 min at 37° C. The plate was centrifuged for 5 min and supernatant was placed into another 96 well and cell pellet were resuspended with 0.5% Triton X-100 (Sigma) in Tyrode's buffer. Supernatant and cell lysate (50 μl) was incubated with 100 μl 4 mM p-nitrophenyl-N-acetyl-β-D-galactosaminide (Sigma), dissolved in citrate buffer, pH4.5, at 37 ° C. for 90 min. The reaction is stopped with 200 μl 0.2M Glycine (MP Biomedicals, Solon, Ohio), pH10.7. The plate was read at 405 nm using a reference filter 595 nm by Microplate Reader (Bio-Rad, Hercules, Calif.). β-hexosaminidase release was determined as the ratio between activity in the supernatant and cell lysate multiplied by 100.
The addition of compound 48/80 induces degranulation in FSMCs.

[4] = tested on: ICR mice; test: Contact hypersensitivity (CHS) mouse model to DNFB, ear swelling; type: in vivo; conditions: 0.5 nmol/ear painted immediately before DNFB challenge, measured 24 hours after challenge; FIG. 5C
Method: For induction of CHS to 2,4-dinitrofluorobenzene (DNFB; Nakalai Tesque, Kyoto, Japan), ICR mice were sensitized on two consecutive days, days 0 and 1, on the clipped abdomen with 25 μL of 0.5% of DNFB diluted in acetone/olive oil (3:1). Five days later, animals were challenged on both sides of each ear by painting a nonirritant concentration of 0.2% DNFB. Before challenge, CCK8S (0.5 nmol/ear) diluted in acetone/olive oil (3:1) or only acetone/olive oil (control) was painted on each ear. The ear thickness of mice was measured using dial thickness gauge before and 24 hours after challenge. Ear swelling was calculated from the difference in ear thickness between before and after challenge.
In CHS model, mice were sensitized with DNFB (2,4-dinitrofluorobenzene), a haptene, and the contact hypersensitivity raised by DNFB at day 5 lead to ear swelling.

[5] = tested on: FSMCs; test: Confocal imaging of intracellular Ca in FSMCs; type: cell-based, mouse
Method: Confocal imaging of cells loaded with fluorescent dyes was undertaken using a Zeiss LSM5 pascal (Carl Zeiss, Jena, Germany). Fluo-4-AM (Invitrogen) (1 μM) was loaded at 37° C. for 20 min and washed twice and sit at least for 40 min. Mast cells, were stained for CD117 (c-kit) with Alexa Fluor 700-conjugated anti-mouse CD117 antibody. The LSM5 multi-track configuration was used for simultaneous measurement of intracellular Ca concentration (Ca) (excitation, 488 nm; emission, long-pass 505 nm filter) and the expression of CD117 (excitation, 633 nm; emission, long-pass 650 nm filter). Images were recorded at room temperature with 512×512 pixels. The application of stimulation, such SP and CCK, were applied directly in the bath as a small drop ([…]). Image data were analyzed off-line using the Zeiss LSM510 analyzing software (LSM Image Examiner).
Thus, it is likely that CCK8S affects signaling in mast cells.

## Asp-Tyr(SO3H)-Met-Gly-Trp-Met-Asp-Phe-NH2 (DY(SO3H)MGWMDF-NH2) [CCK8S, natural type cholecystokinin, tyrosine at seventh position from C-terminal sulfated]
[1]; subcutaneous administration, 0.5 nmol/site in saline simultaneously with SP 100 nmol, FIG. 3B
  scratch behavior (frequency of scratch, first 20 minutes): depressed
[1]; transdermal, 0.5 nmol/site in acetone/olive (3:1), tape-stripped skin, 3-4 minutes before SP 100 nmol/site intradermal, FIG. 3
  scratch behavior (frequency of scratch, first 20 minutes): significant reduction
[2]
  production of IL-8: decreased in accordance with the concentration
[3]
  degranulation (β-hexosaminidase release) induced by compound 48/80: suppression of degranulation was observed
[4]
  ear swelling: suppressed
[5]; Ca response after CCK8S, FIG. 6 bottom
  percentage of responding FSMCs: 45%
[5]; FSMCs, Fluo-4-AM, FIG. 6 top
  change of intracellular Ca concentration: transient increase
[5]; FSMCs, FIG. 6 top
  time to transient increase in Ca after the administration: ≤ 1 min
